# Assays:
# Chymase = target: T1, Chymase (Homo sapiens, UniProt P23946); assay: Inhibitory activity against human heart chymase in vitro.
# T1 sequence (P23946 whole entry): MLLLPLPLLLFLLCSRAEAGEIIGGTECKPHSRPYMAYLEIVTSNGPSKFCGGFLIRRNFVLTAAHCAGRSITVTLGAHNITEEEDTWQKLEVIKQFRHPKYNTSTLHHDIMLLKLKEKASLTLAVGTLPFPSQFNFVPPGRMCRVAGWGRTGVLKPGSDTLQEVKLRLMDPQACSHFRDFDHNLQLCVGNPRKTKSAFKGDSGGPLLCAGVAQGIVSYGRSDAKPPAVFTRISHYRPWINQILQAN
# Cathepsin G = target: T2, Cathepsin G (Homo sapiens, UniProt P08311); assay: Inhibitory activity against human neutrophil cathepsin G.
# T2 sequence (P08311 whole entry): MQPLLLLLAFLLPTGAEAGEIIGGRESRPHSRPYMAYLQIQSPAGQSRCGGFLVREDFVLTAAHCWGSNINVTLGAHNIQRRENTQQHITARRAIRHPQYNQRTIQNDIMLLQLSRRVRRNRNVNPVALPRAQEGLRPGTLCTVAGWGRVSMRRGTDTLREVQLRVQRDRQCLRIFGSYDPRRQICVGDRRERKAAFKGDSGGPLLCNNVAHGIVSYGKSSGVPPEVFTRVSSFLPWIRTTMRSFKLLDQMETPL
IC50 (Chymase) [µM],IC50 (Cathepsin G) [µM],Structure (SMILES)
> 100,,"O=c1n(S(=O)(=O)c2ccc(Cl)cc2)cc(O)n1-c1ccc(Cl)cc1 [1-(4-Chloro-benzenesulfonyl)-3-(4-chloro-phenyl)-imidazolidine-2,4-dione]"
> 100,> 100,"O=C(OCn1c(O)cn(-c2ccccc2)c1=O)c1ccccc1 [Benzoic acid 2,5-dioxo-3-phenyl-imidazolidin-1-ylmethyl ester]"
